Measurements as given in patent US20230132823A1, “BI-FUNCTIONAL COMPOUNDS AND METHODS FOR TARGETED UBIQUITINATION OF ANDROGEN RECEPTOR” (MONTELINO THERAPEUTICS, INC., priority 2020, published 2023).

Assays:
[1] = biological target: T1, glucocorticoid receptor (GR) (Homo sapiens, UniProt P04150); test: Immunoblot of GR in 22Rv1 cells; type: cell-based; settings: 22Rv1, 24 hours, up to 10 μM
T1 construct: endogenous in cells; host or cells: 22Rv1
T1 sequence (P04150 1-777): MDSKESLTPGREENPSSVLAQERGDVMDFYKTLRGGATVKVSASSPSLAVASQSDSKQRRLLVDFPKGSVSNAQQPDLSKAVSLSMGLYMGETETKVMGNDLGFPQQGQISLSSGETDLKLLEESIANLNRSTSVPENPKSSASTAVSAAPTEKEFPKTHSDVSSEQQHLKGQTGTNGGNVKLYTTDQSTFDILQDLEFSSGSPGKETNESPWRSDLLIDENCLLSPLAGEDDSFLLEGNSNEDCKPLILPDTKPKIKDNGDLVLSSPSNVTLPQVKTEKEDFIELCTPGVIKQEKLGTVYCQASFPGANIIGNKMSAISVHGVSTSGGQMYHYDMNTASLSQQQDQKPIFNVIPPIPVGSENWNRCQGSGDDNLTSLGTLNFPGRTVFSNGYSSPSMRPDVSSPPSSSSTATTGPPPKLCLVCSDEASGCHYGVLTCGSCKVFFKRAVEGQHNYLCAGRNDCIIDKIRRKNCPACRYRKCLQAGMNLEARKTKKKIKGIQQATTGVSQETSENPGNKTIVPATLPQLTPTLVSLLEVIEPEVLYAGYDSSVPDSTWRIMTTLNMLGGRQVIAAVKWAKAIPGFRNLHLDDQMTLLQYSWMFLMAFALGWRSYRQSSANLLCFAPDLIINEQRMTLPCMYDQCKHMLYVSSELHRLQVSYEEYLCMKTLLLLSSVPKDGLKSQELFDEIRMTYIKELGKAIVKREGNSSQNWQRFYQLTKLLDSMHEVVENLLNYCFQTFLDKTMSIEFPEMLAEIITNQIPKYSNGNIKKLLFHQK
Method: (§1) Cell Culture. Human CaP cell lines, LNCaP, 22Rv1, VCaP, PC3, and DU145 are obtained from the American Type Culture Collection (ATCC) and maintained in the standard culture media: RPMI-1640 supplemented with 10% fetal bovine serum (FBS). LNCaP, 22Rv1, and VCaP are androgen-responsive cell lines, while PC3 and DU145 are not. To establish SAT resistant CaP cell lines, LNCaP, 22Rv1, and VCaP are treated continuously with 10-50 μM abiraterone, apalutamide, darolutamide, or enzalutamide. After 3-6 months, stable cell lines are established and designated as LNCaP-Abi^R, LNCaP-Apa^R, LNCaP-Daro^R, LNCaP-Enz^R, VCaP-Abi^R, VCaP-Apa^R, VCaP-Daro^R, VCaP-Enz^R, 22Rv1-Abi^R, 22Rv1-Apa^R, 22Rv1-Daro^R and 22Rv1-Enz^R. Unless otherwise specified, the standard culture media for these SAT-resistant cell lines included 10 μM of their respective SAT. For the proteasome inhibitor study, the inhibitors MG132 and Epoxomicin are used. The E3 ligase inhibitors Heclin, Nutlin 3a, Thalidomide, and VH298 are used. […] Mycoplasma contamination is also assessed using a PCR based detection system.
(§2) Immunoblot Analysis. […] Cell lysates are then centrifuged and protein in the supernatant is quantified. […] Following the incubation with appropriate secondary antibody, immunoblots are analyzed using SuperSignal West Femto Maximum Sensitivity Substrate (ThermoFisher).

[2] = system: progesterone receptor (PR) a and b; test: Immunoblot of PR in 22Rv1 cells; type: cell-based, human; settings: 22Rv1, 24 hours, up to 10 μM
Method: as §1, §2

[3] = system: DU145; test: DU145 cell proliferation; type: cell-based, human; settings: AR-negative cell line; 1 μM
Method: The human prostate cancer cell line, 22Rv1 has been reported to express a high level of AR-V7. Thus, 22Rv1 was seeded at 50,000 cells/well on a 24-well plate in quadruplicates and treated with test compound in concentrations ranging up to 20 μM for four days. Standard culture media was RPMI-1640 supplemented with 10% fetal bovine serum. The test compound initially was dissolved in DMSO at 50 mM. This stock solution was then diluted as needed for the indicated concentrations. At the end of the four-day period, cells were harvested using 1% trypsin and counted using an automated cell counter.
Cell Culture. Human CaP cell lines, LNCaP, 22Rv1, VCaP, PC3, and DU145 are obtained from the American Type Culture Collection (ATCC) and maintained in the standard culture media: RPMI-1640 supplemented with 10% fetal bovine serum (FBS). LNCaP, 22Rv1, and VCaP are androgen-responsive cell lines, while PC3 and DU145 are not. To establish SAT resistant CaP cell lines, LNCaP, 22Rv1, and VCaP are treated continuously with 10-50 μM abiraterone, apalutamide, darolutamide, or enzalutamide. […] Mycoplasma contamination is also assessed using a PCR based detection system.

[4] = system: SAT-resistant CaP cell lines; test: Cell proliferation assay in twelve SAT-resistant CaP cell lines; type: cell-based, human; settings: 1 μM, 6 days; all lines except 22Rv1-EnzR
Method: Cell Culture. Human CaP cell lines, LNCaP, 22Rv1, VCaP, PC3, and DU145 are obtained from the American Type Culture Collection (ATCC) and maintained in the standard culture media: RPMI-1640 supplemented with 10% fetal bovine serum (FBS). LNCaP, 22Rv1, and VCaP are androgen-responsive cell lines, while PC3 and DU145 are not. To establish SAT resistant CaP cell lines, LNCaP, 22Rv1, and VCaP are treated continuously with 10-50 μM abiraterone, apalutamide, darolutamide, or enzalutamide. After 3-6 months, stable cell lines are established and designated as LNCaP-Abi^R, LNCaP-Apa^R, LNCaP-Daro^R, LNCaP-Enz^R, VCaP-Abi^R, VCaP-Apa^R, VCaP-Daro^R, VCaP-Enz^R, 22Rv1-Abi^R, 22Rv1-Apa^R, 22Rv1-Daro^R and 22Rv1-Enz^R. Unless otherwise specified, the standard culture media for these SAT-resistant cell lines included 10 μM of their respective SAT. For the proteasome inhibitor study, the inhibitors MG132 and Epoxomicin are used. The E3 ligase inhibitors Heclin, Nutlin 3a, Thalidomide, and VH298 are used. Cell lines obtained from ATCC are confirmed by checking their morphology using optical microscopy, establishing baselines for cell proliferation, verifying species of origin using isoenzymology, and characterizing the cell's DNA fingerprint using short tandem repeat (STR) profiling. Mycoplasma contamination is also assessed using a PCR based detection system. […]

[5] = system: AR-FL; test: Immunoblot of AR-FL in harvested xenograft tumors; type: in vivo, human
Method: Immunoblot Analysis. CaP cells are collected and lysed with the lysis buffer (20 mM Tris-HCl (pH 7.5), 150 mM NaCl, 1 mM Na2EDTA, 1 mM EGTA, 1% Triton, 2.5 mM sodium pyrophosphate, 1 mM beta-glycerophosphate, 1 mM Na3VO4, and 1 μg/ml leupeptin) containing 1 mM phenylmethylsulfonyl fluoride (PMSF). Cell lysates are then centrifuged and protein in the supernatant is quantified. After separating 25-50 μg of protein using SDS-PAGE, samples are incubated with AR-V7, GR, PR, ERα, AR-FL, ubiquitin, or β-actin antibodies. For AR-V7, AR-FL, PR, GR, and ERα immunoblots, primary antibody is diluted 1:1000 in 5% skim milk. For the β-actin immunoblot, 1:10000 diluted primary antibody is used. […] Following the incubation with appropriate secondary antibody, immunoblots are analyzed using SuperSignal West Femto Maximum Sensitivity Substrate (ThermoFisher).
Mice are then treated daily with Test Compound with or without enzalutamide via the indicated route (intratumoral, intraperitoneal, or oral) for five to six weeks. At the end of the study, all animals are sacrificed and tumors are harvested and analyzed. Statistical significance is calculated using the Student's t-test for paired comparisons of experimental groups and, where appropriate, by Wilcoxon rank sum test, and by 2-way ANOVA. […]
The in vivo effects of the Compound of Example 16 are assessed in mice using enzalutamide-resistant CaP xenografts. […]

effect on expression level of glucocorticoid receptor (GR) [1]: no visible effect
Structure (SMILES): Cc1ncsc1-c1ccc([C@H](C)NC(=O)[C@@H]2C[C@@H](O)CN2C(=O)[C@@H](NC(=O)CCCCNC(=O)COc2c(-c3csc(N4CCOCC4)n3)ccc(F)c2F)C(C)(C)C)cc1 [Example 16, (2S,4R)-1-((S)-2-(5-(2-(2,3-difluoro-6-(2-morpholinothiazol-4-yl)phenoxy)acetamido)pentanamido)-3,3-dimethylbutanoyl)-4-hydroxy-N-((S)-1-(4-(4-methylthiazol-5-yl)phenyl)ethyl)pyrrolidine-2-carboxamide]
effect on expression level of progesterone receptor (PR) a and b [2]: no visible effect
effect on DU145 cells [3]: not affected
cell counts of SAT-resistant CaP cell lines, % of control [4]: 6-80 % of control
AR-FL protein expression in Enz^R CaP tumors ([5]; IP administration): decreased
AR-FL protein level in treated tumors ([5]; intratumoral, 22Rv1-Enz^R xenograft, end of study): significant decrease
